Each molecule was assayed against T1, 14-3-3γ/PKR complex (Homo sapiens, UniProt P61981) (assay: FA / TD-FA selectivity screen, PKR client peptide). Settings: 100 μM compound.
T1 construct: made in house; host or cells: E. coli NiCo21 (DE3)
T1 sequence (P61981 1-247): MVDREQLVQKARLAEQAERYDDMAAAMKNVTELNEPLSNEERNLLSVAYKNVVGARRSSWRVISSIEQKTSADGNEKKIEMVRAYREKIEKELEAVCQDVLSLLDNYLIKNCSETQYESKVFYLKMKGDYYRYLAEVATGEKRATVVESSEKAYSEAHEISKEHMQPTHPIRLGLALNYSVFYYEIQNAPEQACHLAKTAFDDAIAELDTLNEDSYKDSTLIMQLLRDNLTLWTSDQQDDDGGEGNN
Type: binding
Method: Drugging the hub protein 14-3-3 raises the challenge of selectivity, given that 14-3-3 binds several hundred phosphoprotein partners (Figure 4a).[54] We hypothesized that the interplay of chemical reactivity, the topology, and functionality of the composite binding pocket shaped by 14-3-3 and the interaction partner drives selective stabilization of the 14-3-3/ERRγ complex.[53] To validate selectivity, molecular locks 5 and 10 were tested against a panel of nine 14-3-3 client peptides in an FA assay, and the SF100 was determined for each 14-3-3 PPI (Figure 4b and Figures S18–S20). This client panel contained a diverse representation of 14-3-3 binding proteins, differing for example in size and hydrophobicity of the +1 amino acid. Importantly, clients PKR and RND3, each containing a +1 Cys, were included in the panel.
To further assess off-target reactivity to +1 Cys-containing peptides, fragment 1, locks 5 and 10 were also screened against PKR and RND3 in the TD-FA assay.
Figure S20. KD and SF100 plot – selectivity screen. […]
nine different client peptides in presence of DMSO (negative control) or 100 µM of compound 1, 5 or 10 (based on binding curves in Figure S19). Also a bar plot representation of stabilization factor (SF100) of compounds 1, 5 and 10 for each of these peptides (bottom plot).
(1 picture or pasted object on this page, not shown here)
Experimental Section Biophysical Assays
14-3-3γ protein expression (FA, TSA, MS assays)
A pPROEX HTb expression vector encoding the human 14-3-3 protein gamma (14-3-3γ) with a N-terminal his6-tag was transformed by heat shock into NiCo21 (DE3) competent cells. Single colonies were cultured in 50 mL LB medium (100 µg/mL ampicillin). After overnight incubation at 37 °C, cultures were transferred to 2 L TB media (100 µg/mL ampicillin, 1 mM MgCl2) and incubated at 37 °C until an OD600 nm of 0.8 -1.2 was reached. […] Finally, the protein was concentrated to ∼60 mg/mL, analyzed Q-Tof LC/MS, and aliquots were flash-frozen for storage at −80 °C. […]

| SMILES | stabilization of the PKR complex |
| --- | --- |
| CN(C)CCSSCCN(C)C(=O)c1cccc(F)c1 [compound 1, reference compound] | no stabilization |
| CN(C)CCSSCCN(C)C(=O)c1ccc(C=O)c(F)c1 [compound 5] | no stabilization |
| CN(C)CCSSCCN(C)C(=O)c1cc(Br)cc(C=O)c1 [compound 10] | no stabilization |
